Experimental data: the CheMixHub viscosity set
Where “and” joins values, the source holds several entries; their conditions need not be identical. Equal entries are not always repeated. ± gives the uncertainty stated by the source.

C/C=C/C(=O)OCC
101 kPa
Conditions	viscosity [mPa·s]
293.15 K	0.8184 ± 0.0091
298.15 K	0.7576 ± 0.0085
303.15 K	0.7053 ± 0.0079
313.15 K	0.6154 ± 0.007
323.15 K	0.5471 ± 0.0063

C=CC(=O)OC(C)(C)C
viscosity [mPa·s]
Conditions	293.15 K	298.15 K	303.15 K	308.15 K	313.15 K	318.15 K
100 kPa	0.9072 ± 0.012	0.8309 ± 0.011	0.76 ± 0.011	0.701 ± 0.011	0.6485 ± 0.011	0.6034 ± 0.011
101 kPa	0.9072 ± 0.037	0.8309 ± 0.034	0.76 ± 0.031	0.701 ± 0.029	0.6485 ± 0.026	0.6034 ± 0.025

CC(C)c1cc(C(C)C)cc(C(C)C)c1
102 kPa
Conditions	viscosity [mPa·s]
293.15 K	4.12 ± 0.07
303.15 K	3.05 ± 0.06
313.15 K	2.35 ± 0.05
323.15 K	1.86 ± 0.04

CCCCCC(C)C
100 kPa
Conditions	viscosity [mPa·s]
293.15 K	0.5 ± 0.007
303.15 K	0.444 ± 0.007
313.15 K	0.393 ± 0.006
323.15 K	0.355 ± 0.006

CCCCCCBr
101 kPa
Conditions	viscosity [mPa·s]
298.15 K	0.9475 ± 0.02
303.45 K	0.885 ± 0.019
313.35 K	0.782 ± 0.017

CCCCCCCC(=O)OCC(COC(=O)CCCCCCC)OC(=O)CCCCCCC
101.33 kPa
Conditions	viscosity [mPa·s]
298 K	19.98 ± 0.37
303 K	16.58 ± 0.31
308 K	13.79 ± 0.25
313 K	11.57 ± 0.21

CCCCCCCCCCCC[P+](CCCC)(CCCC)CCCC.N#Cc1ccc[n-]1
100 kPa
Conditions	viscosity [mPa·s]
293.15 K	567 ± 84
298.15 K	389 ± 57
303.15 K	297 ± 43
313.15 K	166 ± 24

CCCCCC[N+]1(C)CCCC1.O=S(=O)([N-]S(=O)(=O)C(F)(F)F)C(F)(F)F
Conditions	viscosity [mPa·s]
293.15 K, 100 kPa	136.2 ± 3.8
295.2 K, 101.3 kPa	119.8 ± 17
298.15 K, 100 kPa	102.8 ± 2.5
300.2 K, 101.3 kPa	96.8 ± 11
303.15 K, 100 kPa	79.59 ± 1.8
305.2 K, 101.3 kPa	79.6 ± 6.4
308.15 K, 100 kPa	63.07 ± 1.3
310.2 K, 101.3 kPa	64.8 ± 3.3
313.15 K, 100 kPa	51.01 ± 1.1
313.15 K, 101 kPa	52.7 ± 5.4
315.2 K, 101.3 kPa	54.2 ± 1.9
320.2 K, 101.3 kPa	45.9 ± 2.2

CCCCNCCO
101.33 kPa
Conditions	viscosity [mPa·s]
293.15 K	19.67 ± 0.42
298.15 K	15.39 ± 0.33
303.15 K	12.23 ± 0.26
308.15 K	9.869 ± 0.21
313.15 K	8.07 ± 0.17
318.15 K	6.68 ± 0.14
323.15 K	5.591 ± 0.12

CCCCOCCO
Conditions	viscosity
293.15 K, 101.3 kPa	3.248 ± 0.16 mPa·s
293.15 K, 101.33 kPa	3.26 ± 0.069 mPa·s
295.15 K, 101 kPa	3.015 ± 0.027 mPa·s
297.15 K, 101 kPa	2.857 ± 0.026 mPa·s
298 K, 101.3 kPa	2.786 ± 0.073 mPa·s
298.15 K, 100 kPa	2.855 ± 0.1 mPa·s
298.15 K, 101.3 kPa	2.834 ± 0.14 mPa·s
298.15 K, 101.33 kPa	2.844 ± 0.06 mPa·s
298.45 K, 101 kPa	2.825 ± 0.026 mPa·s
299.15 K, 101 kPa	2.709 ± 0.024 mPa·s
301.15 K, 101 kPa	2.576 ± 0.023 mPa·s
303 K, 101.3 kPa	2.403 ± 0.064 mPa·s
303.15 K, 101.33 kPa	2.408 ± 0.061 mPa·s
305.15 K, 101 kPa	2.327 ± 0.021 mPa·s
307.15 K, 101 kPa	2.217 ± 0.019 mPa·s
308 K, 101.3 kPa	2.115 ± 0.056 mPa·s
308.15 K, 100 kPa	2.274 ± 0.1 mPa·s
308.15 K, 101.3 kPa	2.228 ± 0.014 mPa·s and 2.204 ± 0.11 mPa·s
308.15 K, 101.33 kPa	2.193 ± 0.1 mPa·s
309.15 K, 101 kPa	2.118 ± 0.019 mPa·s
311.15 K, 101 kPa	2.017 ± 0.018 mPa·s
313 K, 101.3 kPa	1.867 ± 0.05 mPa·s
313.15 K, 101.3 kPa	1.964 ± 0.099 mPa·s
313.15 K, 101.33 kPa	1.97 ± 0.052 mPa·s and 1.869 ± 0.048 mPa·s
315.15 K, 101 kPa	1.844 ± 0.016 mPa·s
317.15 K, 101 kPa	1.764 ± 0.015 mPa·s
318 K, 101.3 kPa	1.657 ± 0.044 mPa·s
318.15 K, 101 kPa	1.937 ± 0.19 mPa·s and 1.938 ± 0.045 mPa·s and 1.928 ± 0.078 mPa·s
318.15 K, 101.3 kPa	1.759 ± 0.089 mPa·s
318.15 K, 101.33 kPa	1.764 ± 0.052 mPa·s
319.15 K, 101 kPa	1.688 ± 0.015 mPa·s
321.15 K, 101 kPa	1.618 ± 0.014 mPa·s
323.15 K, 101 kPa	1.552 ± 0.013 mPa·s
323.15 K, 101.3 kPa	1.584 ± 0.08 mPa·s
323.15 K, 101.33 kPa	1.588 ± 0.051 mPa·s

CCCC[n+]1ccn(C)c1.N#C[C-](C#N)C#N
100 kPa
Conditions	viscosity [mPa·s]
293.15 K	34.9 ± 1.8
298.15 K	27.97 ± 1.4
303.15 K	22.85 ± 1.2
308.15 K	18.98 ± 0.97
313.15 K	15.99 ± 0.82
318.15 K	13.66 ± 0.7
323.15 K	11.8 ± 0.6

CCCC[n+]1ccn(C)c1.O=[N+]([O-])[O-]
101 kPa
Conditions	viscosity [mPa·s]
293.15 K	212.1
298.15 K	158.8 ± 77
303.15 K	121.2 ± 45
308.15 K	94.07 ± 25
313.15 K	74.19 ± 12
318.15 K	59.38 ± 4.4
323.15 K	48.18 ± 4.7
